Data as given in the supplement of paper PMC10307832.

Columns and labels:
Experiment in all cases: relative viability (nuclei count vs DMSO), 5 days (fraction); higher = more cells survive
Selisistat + OSI-027 = compound: C1CC(C2=C(C1)C3=C(N2)C=CC(=C3)Cl)C(=O)N [Selisistat] + COc1cccc2cc(-c3nc([C@H]4CC[C@H](C(=O)O)CC4)n4ncnc(N)c34)[nH]c12 [OSI-027] (partner 0.5 µM)
Summary of the method: (§1)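 Five library-drug doses in √10 steps were combined with a fixed anchor-drug dose, or a single drug was given alone, by pin tool to lung cancer cell lines in 1536-well plates the day after seeding. Nuclei were stained and counted after 5 days. Relative viability is the nuclei count in treated wells over that in vehicle wells, taken as the median of duplicate plates.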

Selisistat + Crizotinib = compound: C1CC(C2=C(C1)C3=C(N2)C=CC(=C3)Cl)C(=O)N [Selisistat] + C[C@@H](Oc1cc(-c2cnn(C3CCNCC3)c2)cnc1N)c1c(Cl)ccc(F)c1Cl [Crizotinib] (partner 1 µM)
Summary of the method: as §1

Selisistat + Decitabine = compound: C1CC(C2=C(C1)C3=C(N2)C=CC(=C3)Cl)C(=O)N [Selisistat] + Nc1ncn([C@H]2C[C@H](O)[C@@H](CO)O2)c(=O)n1 [Decitabine] (partner 2 µM)
Summary of the method: as §1

Serdemetan + OSI-027 = compound: c1ccc2c(CCNc3ccc(Nc4ccncc4)cc3)c[nH]c2c1 [Serdemetan] + COc1cccc2cc(-c3nc([C@H]4CC[C@H](C(=O)O)CC4)n4ncnc(N)c34)[nH]c12 [OSI-027] (partner 0.5 µM)
Summary of the method: as §1

Row | Cell Line | relative viability (Selisistat + OSI-027; first compound 0.4 µM) | relative viability (Selisistat + OSI-027; first compound 1.265 µM) | relative viability (Selisistat + OSI-027; first compound 4 µM) | relative viability (Selisistat + OSI-027; first compound 12.65 µM) | relative viability (Selisistat + OSI-027; first compound 40 µM) | relative viability (Selisistat + Crizotinib; first compound 0.4 µM) | relative viability (Selisistat + Crizotinib; first compound 1.265 µM) | relative viability (Selisistat + Crizotinib; first compound 4 µM) | relative viability (Selisistat + Crizotinib; first compound 12.65 µM) | relative viability (Selisistat + Crizotinib; first compound 40 µM) | relative viability (Selisistat + Decitabine; first compound 0.4 µM) | relative viability (Selisistat + Decitabine; first compound 1.265 µM) | relative viability (Selisistat + Decitabine; first compound 4 µM) | relative viability (Selisistat + Decitabine; first compound 12.65 µM) | relative viability (Selisistat + Decitabine; first compound 40 µM) | relative viability (Serdemetan + OSI-027; first compound 0.04 µM) | relative viability (Serdemetan + OSI-027; first compound 0.1265 µM) | relative viability (Serdemetan + OSI-027; first compound 0.4 µM) | relative viability (Serdemetan + OSI-027; first compound 1.265 µM) | relative viability (Serdemetan + OSI-027; first compound 4 µM)
1 | NCI-H1650 | 0.633 | 0.517 | 0.551 | 0.534 | 0.611 | 1.09 | 0.966 | 0.909 | 0.899 | 0.955 | 0.545 | 0.422 | 0.382 | 0.481 | 0.438 | 0.664 | 0.701 | 0.412 | 0.532 | 0.473
2 | NCI-H2009 | 0.659 | 0.662 | 0.424 | 0.509 | 0.535 | 1.09 | 1.02 | 1 | 0.989 | 0.906 | 0.437 | 0.338 | 0.372 | 0.45 | 0.394 | 0.653 | 0.678 | 0.628 | 0.55 | 0.466
3 | LOU-NH91 | 0.814 | 0.715 | 0.675 | 0.756 | 0.708 | 0.766 | 0.664 | 0.683 | 0.729 | 0.738 | 0.815 | 0.795 | 0.784 | 0.787 | 0.788 | 0.703 | 0.681 | 0.456 | 0.692 | 0.784
4 | NCI-H2405 | 0.674 | 0.579 | 0.598 | 0.674 | 0.666 | 0.825 | 0.807 | 0.787 | 0.833 | 0.832 | 0.881 | 0.78 |  | 0.748 | 0.697 | 0.591 | 0.602 | 0.657 | 0.622 | 0.594
5 | LCLC-97TM1 | 0.59 | 0.653 |  | 0.553 | 0.619 | 0.327 | 0.308 | 0.637 | 0.393 | 0.498 | 0.24 | 0.219 |  | 0.245 | 0.29 | 0.371 | 0.553 | 0.412 |  | 0.528
6 | NCI-H596 | 0.793 | 0.692 | 0.505 | 0.698 | 0.732 | 1.11 | 0.898 | 0.853 | 0.991 | 0.905 | 1.07 | 1.02 | 0.862 | 1.09 | 1.07 | 0.888 | 0.699 | 0.614 | 0.494 | 0.519
7 | NCI-H727 | 0.587 | 0.641 |  | 0.641 | 0.511 | 0.823 | 0.816 |  |  | 0.729 | 0.851 | 0.891 | 0.446 | 0.898 | 0.818 | 0.69 | 0.681 | 0.567 | 0.466 | 0.499
8 | H3255 | 0.621 | 0.553 | 0.741 | 0.579 | 0.648 | 0.899 | 0.769 | 0.926 | 0.899 | 0.734 | 0.624 | 0.628 | 0.562 | 0.578 | 0.61 | 0.587 | 0.675 | 0.613 | 0.573 | 0.518
9 | SK-MES-1 | 0.638 | 0.668 | 0.657 | 0.437 | 0.646 | 1.12 | 0.993 | 1.05 | 0.875 | 0.959 | 0.397 | 0.446 | 0.312 | 0.325 | 0.331 | 0.572 | 0.578 | 0.621 | 0.541 | 0.447
10 | NCI-H1437 | 0.908 | 0.915 | 0.631 | 0.891 | 0.783 | 0.855 | 0.885 | 0.977 | 0.865 | 0.792 | 0.61 | 0.597 | 0.528 | 0.503 | 0.543 | 0.872 | 0.865 | 0.868 | 0.585 | 0.729
11 | LU99A | 0.345 | 0.283 | 0.344 | 0.288 | 0.297 | 0.568 | 0.438 | 0.662 | 0.493 | 0.677 | 0.947 | 0.928 | 0.847 | 0.792 | 0.907 | 0.282 | 0.313 | 0.275 | 0.216 | 0.29
12 | HCC-827 | 0.763 | 0.766 | 0.705 | 0.746 | 0.768 | 0.954 | 0.873 | 0.946 | 0.838 | 0.883 | 0.313 | 0.375 | 0.31 | 0.321 | 0.291 | 0.787 | 0.743 |  | 0.696 | 0.627
13 | LK-2 | 0.196 | 0.179 | 0.174 | 0.179 | 0.255 | 0.234 | 0.255 | 0.245 | 0.231 | 0.24 | 0.397 | 0.307 | 0.198 | 0.34 | 0.294 | 0.205 | 0.23 | 0.216 | 0.193 | 0.214
14 | HCC-366 | 1.01 | 0.837 | 0.605 | 0.889 | 0.898 | 0.58 | 0.681 | 0.4 | 0.521 | 0.562 | 0.383 | 0.31 | 0.33 | 0.356 | 0.324 | 0.87 | 0.858 | 0.733 | 0.173 | 0.122
15 | BEN | 0.263 | 0.251 | 0.282 | 0.282 | 0.274 | 0.843 | 0.76 | 0.748 | 0.72 | 0.863 | 0.923 | 0.556 | 0.479 | 0.707 | 0.691 | 0.307 | 0.292 | 0.272 |  | 0.286
16 | NCI-H23 | 0.56 | 0.602 | 0.508 | 0.529 | 0.605 | 0.515 | 0.474 |  | 0.468 | 0.473 | 0.303 | 0.32 |  | 0.328 | 0.355 | 0.636 | 0.702 | 0.607 | 0.43 | 0.531
17 | 201T | 0.797 | 0.705 | 0.555 | 0.587 | 0.739 | 1.04 | 1.03 | 0.986 | 1.02 | 1.01 | 0.915 | 0.816 | 0.845 | 0.877 | 0.913 | 0.584 | 0.676 | 0.76 |  | 0.664
18 | NCI-H2170 | 0.839 | 0.692 | 0.63 | 0.766 | 0.739 | 1.2 | 1.16 | 1.22 | 1.15 | 1.26 | 0.481 | 0.474 | 0.458 | 0.53 | 0.47 | 0.686 | 0.737 | 0.635 | 0.367 | 0.73
19 | NCI-H460 | 0.695 | 0.667 | 0.471 | 0.557 | 0.666 | 1.02 | 0.658 |  | 0.881 | 0.987 | 0.474 | 0.499 | 0.571 | 0.467 | 0.513 | 0.61 | 0.691 | 0.641 | 0.342 | 0.0861
20 | NCI-H661 | 0.749 | 0.81 | 0.744 | 0.629 | 0.564 | 0.967 | 0.952 | 1.17 | 1.04 | 0.996 | 0.592 | 0.521 | 0.428 | 0.46 | 0.442 | 0.689 | 0.706 | 0.736 | 0.672 | 0.69
21 | HCC-15 | 0.81 | 0.676 |  | 0.622 | 0.618 | 0.913 | 0.866 |  | 0.782 | 0.813 | 0.695 | 0.739 |  | 0.737 | 0.79 | 0.643 | 0.75 | 0.624 | 0.452 | 0.522
22 | ABC-1 | 0.499 | 0.447 | 0.331 | 0.442 | 0.436 | 1.01 | 1.19 | 1.1 | 0.933 | 0.881 | 0.881 | 1.02 |  | 0.86 | 1.08 | 0.459 | 0.488 | 0.486 | 0.296 | 0.265
23 | LCLC-103H | 0.486 | 0.469 | 0.348 | 0.479 | 0.442 | 1.08 | 0.991 | 0.996 | 0.999 | 1.07 | 0.782 | 0.77 | 0.7 | 0.729 | 0.75 | 0.431 | 0.551 | 0.479 | 0.537 | 0.406
24 | NCI-H441 | 0.658 | 0.532 | 0.481 | 0.544 | 0.754 | 0.754 | 0.652 | 0.915 | 0.673 | 0.806 | 0.268 | 0.234 | 0.234 | 0.25 | 0.293 | 0.581 | 0.802 | 0.622 | 0.347 | 0.441
25 | EPLC-272H | 0.274 | 0.237 |  | 0.289 | 0.289 | 0.941 | 0.865 |  | 0.915 | 0.992 | 0.365 | 0.389 |  | 0.382 | 0.364 | 0.285 | 0.355 | 0.296 | 0.248 | 0.272
